Assay results: EP2408450B1, “ALPHA-(N-SULFONAMIDO)ACETAMIDE COMPOUND AS AN INHIBITOR OF BETA AMYLOID PEPTIDE PRODUCTION” (Bristol-Myers Squibb Company, priority 2009, dated 2010)

Columns and labels:
brain Aβ40 = test: Rat brain Aβ40 assay (252-TSD ELISA); type: in vivo; conditions: for Day 7 5hr Brain Aβ40 (%Veh): 7 days; for Terminal Brain Aβ40 (%Veh) 5hr: 5 hours after the fourth dose; for Terminal Brain Aβ40 (%Veh) 12hr: 12 hours after the third dose; for Terminal Brain Aβ40 (%Veh) 24hr: 24 hours after the third dose; for brain Aβ40, % of baseline Aβ40 values: 2 to 24 hours post dosing
Method: All procedures were done in concordance with ACUC guidelines. […] Plasma was obtained after centrifugation. […] CSF samples were centrifuged to remove cells or debris prior to dilution at 1:2 in 4% BSA and frozen for subsequent analysis. […] Rat brain (half a hemisphere) was homogenized using a polytron at 4 mL/g in PBS, pH 7.8, 2% CHAPS, complete protease inhibitors (Roche). […] White Microlite II ELISA plates (Thermo Electron) were incubated with 50 µg/mL TSD9S3.2 antibody in PBS for 1 hour at 37°C. Plates were blocked with 200 µL 5% bovine serum albumin (BSA; weight/volume prepared in PBS) for 2 hours at room temperature on a plate shaker and then washed 5 times with 500 µL/well of PBS, 0.05% Tween-20. Clarified brain homogenates were loaded in 6 replicates of 50 µL per well and incubated for 1 hour at room temperature. […] Samples were normalized to a brain homogenate reference placed on each plate.

[1] = Metabolic stability in liver microsomes (mouse); type: in vitro ADME
Method: Mouse, rat, dog, human, and cynomolgus monkey liver microsomes were obtained from BD Gentest (Woburn, MA). The lot numbers were 13 (mouse), 8 (rat), 8 (dog), 19 and 26 (human), and 3 (cynomolgus monkey). […] The reaction, conducted in triplicate, was initiated by the addition of NADPH followed by incubation at 37°C for 50 minutes. Aliquots of samples (0.25 mL) were taken at 0, 5, 10, 20, 30, 40 and 50 minutes and the reaction was quenched by the addition of 3 volumes of acetonitrile. […] The reaction, conducted in triplicate, was initiated by the addition of NADPH followed by incubation at 37 °C for 50 minutes. Aliquots of samples (0.25 mL) were taken at 0, 5, 10, 20, 30, 40 and 50 minutes and the reaction was quenched by the addition of 3 volumes of acetonitrile. […] The reaction, conducted in duplicate, was initiated by the addition of NADPH followed by incubation at 37°C for 40 minutes. Aliquots of samples (0.25 mL) were taken at 0, 5, 10, 15, 20, 30 and 40 minutes and the reaction was quenched by the addition of 3 volumes of acetonitrile. For all studies, samples were analyzed immediately by an LC/MS method.

[2] = rat, Study No. 2, 100 mg/kg/day

In the case of `NC(=O)[C@@H](CCC(F)(F)F)N(Cc1ccc(-c2ncon2)cc1F)S(=O)(=O)c1ccc(Cl)cc1` [(2R)-2-[[(4-chlorophenyl)sulfonyl][[2-fluoro-4-(1,2,4-oxadiazol-3-yl)phenyl]methyl]amino]-5,5,5-trifluoropentanamide], the “Day 7 5hr Brain Aβ40 (%Veh)” value (brain Aβ40; Rat Study No. 3, 30 mg/kg/day) was 13%Veh, the “Day 7 5hr Brain Aβ40 (%Veh)” value (brain Aβ40; Rat Study No. 3, 300 mg/kg/day) was 13%Veh and the ED50 (brain Aβ40; acute rat studies, read-out: ED50 for reduction of brain Aβ40) was 1 to 10 mg/kg. For the same molecule, the “Brain % Aβ AUC Reduction” value (brain Aβ40; rat, Study No. 2, 3 mg/kg/day) was 57%, the “Terminal Brain Aβ40 (%Veh) 5hr” value (brain Aβ40; rat, Study No. 2, 3 mg/kg/day) was 16%Veh and the “Terminal Brain Aβ40 (%Veh) 12hr” value (brain Aβ40; rat, Study No. 2, 3 mg/kg/day) was 34%Veh. For the same molecule, the “Terminal Brain Aβ40 (%Veh) 24hr” value (brain Aβ40; rat, Study No. 2, 3 mg/kg/day) was 94%Veh, the “Brain % Aβ AUC Reduction” value (brain Aβ40; rat, Study No. 2, 10 mg/kg/day) was 91% and the “Terminal Brain Aβ40 (%Veh) 5hr” value (brain Aβ40; rat, Study No. 2, 10 mg/kg/day) was 6%Veh. The “Terminal Brain Aβ40 (%Veh) 12hr” value (brain Aβ40; rat, Study No. 2, 10 mg/kg/day) was 4%Veh, the “Terminal Brain Aβ40 (%Veh) 24hr” value (brain Aβ40; rat, Study No. 2, 10 mg/kg/day) was 23%Veh and the “Brain % Aβ AUC Reduction” value (brain Aβ40; rat, Study No. 2, 30 mg/kg/day) was 93%. The “Terminal Brain Aβ40 (%Veh) 5hr” value (brain Aβ40; rat, Study No. 2, 30 mg/kg/day) was 6%Veh, the “Terminal Brain Aβ40 (%Veh) 12hr” value (brain Aβ40; rat, Study No. 2, 30 mg/kg/day) was 4%Veh and the “Terminal Brain Aβ40 (%Veh) 24hr” value (brain Aβ40; rat, Study No. 2, 30 mg/kg/day) was 15%Veh. For the same molecule, the “Brain % Aβ AUC Reduction” value (brain Aβ40; [2]) was 96%, the “Terminal Brain Aβ40 (%Veh) 5hr” value (brain Aβ40; [2]) was 3%Veh and the “Terminal Brain Aβ40 (%Veh) 12hr” value (brain Aβ40; [2]) was 3%Veh. The “Terminal Brain Aβ40 (%Veh) 24hr” value (brain Aβ40; [2]) was 7%Veh, the “Brain % Aβ AUC Reduction” value (brain Aβ40; rat, Study No.1, 3 mg/kg/day) was 49% and the “Terminal Brain Aβ40 (%Veh) 5hr” value (brain Aβ40; rat, Study No.1, 3 mg/kg/day) was 39%Veh. The “Terminal Brain Aβ40 (%Veh) 12hr” value (brain Aβ40; rat, Study No.1, 3 mg/kg/day) was 35%Veh, the “Terminal Brain Aβ40 (%Veh) 24hr” value (brain Aβ40; rat, Study No.1, 3 mg/kg/day) was 92%Veh and the “Brain % Aβ AUC Reduction” value (brain Aβ40; rat, Study No.1, 10 mg/kg/day) was 85%. For the same molecule, the “Terminal Brain Aβ40 (%Veh) 5hr” value (brain Aβ40; rat, Study No.1, 10 mg/kg/day) was 12%Veh, the “Terminal Brain Aβ40 (%Veh) 12hr” value (brain Aβ40; rat, Study No.1, 10 mg/kg/day) was 9%Veh and the “Terminal Brain Aβ40 (%Veh) 24hr” value (brain Aβ40; rat, Study No.1, 10 mg/kg/day) was 28%Veh. The “Brain % Aβ AUC Reduction” value (brain Aβ40; rat, Study No.1, 30 mg/kg/day) was 90%, the “Terminal Brain Aβ40 (%Veh) 5hr” value (brain Aβ40; rat, Study No.1, 30 mg/kg/day) was 8%Veh and the “Terminal Brain Aβ40 (%Veh) 12hr” value (brain Aβ40; rat, Study No.1, 30 mg/kg/day) was 9%Veh. The “Terminal Brain Aβ40 (%Veh) 24hr” value (brain Aβ40; rat, Study No.1, 30 mg/kg/day) was 13%Veh, the “change in brain Aβ40” value (brain Aβ40; rat, single dose 1 mg/kg) was “did not cause a statistically significant change” and the “brain Aβ40, % of baseline Aβ40 values” (brain Aβ40; rat, single dose 10 mg/kg) was “less than 25%”. For the same molecule, the “brain Aβ40, % of vehicle control” value (brain Aβ40; rat, single dose 30 mg/kg) was 16%, the “brain Aβ40, % of baseline Aβ40 values” (brain Aβ40; rat, single dose 100 mg/kg) was “less than 25%” and the “Brain Aβ40 levels at termination, % of the vehicle control” value (brain Aβ40; rats, 30 or 300 mg/kg/day, 5 hours post dose) was 13%. For the same molecule, the “Brain Aβ40 AUC reduction” value (brain Aβ40; subchronic rat studies, doses of 10 mg/kg/day or higher) was “greater than 85%”, the “rate of in vitro metabolism” value ([1]; mouse microsomes, NADPH-fortified, 1 µM) was 690 pmol/min/mg protein and the “predicted in vivo (serum) clearance” value ([1]; mouse, scaled from liver microsome rate) was “approximately 87 mL/min/kg”.
